SMILES strings stand for the structures. pKi: −log10 of the molar value.

Test [1] concerns the target T1, CCR9 (Homo sapiens, UniProt P51686).
T1 sequence (P51686 1-369): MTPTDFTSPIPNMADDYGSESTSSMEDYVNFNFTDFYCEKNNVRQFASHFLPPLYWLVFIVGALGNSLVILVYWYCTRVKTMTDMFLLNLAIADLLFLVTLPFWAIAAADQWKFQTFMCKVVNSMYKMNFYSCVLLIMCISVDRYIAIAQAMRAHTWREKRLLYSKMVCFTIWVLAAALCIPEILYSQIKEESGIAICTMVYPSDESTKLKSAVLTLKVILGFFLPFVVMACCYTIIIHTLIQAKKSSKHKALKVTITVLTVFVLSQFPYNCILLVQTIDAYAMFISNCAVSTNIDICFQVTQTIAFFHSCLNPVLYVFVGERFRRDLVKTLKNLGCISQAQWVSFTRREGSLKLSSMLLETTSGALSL
As to the kind of experiment: FLIPR calcium flux assay using MOLT4 cells (TECK stimulation). The test is classed as cell-based. Also on record: endogenous in cells; host or cells: MOLT4 (human T-cell line). The following applies: MOLT4 cells (a human T-cell line); Ki determined from IC50 of TECK-induced intracellular calcium increase. As for the experimental part:
Biological Activity: FLIPR Assay Using MOLT4 Cells
A calcium flux assay was used to determine the ability of the compounds to interfere with the binding between CCR9 and its chemokine ligand (TECK) in MOLT4 cells (a human T-cell line). MOLT4 cells were seeded (100,000 cells/well) in coming cell culture plates (Cat #3603) in assay buffer (lx HBSS, 20 mM HEPES) containing 2.5 mM Probenecid. The plate was centrifuged at 1200 rpm for 3 minutes and incubated at 37° C./5% CO2 for 2 hours. A 0.3× Fluo-4 NW calcium dye was prepared in assay buffer containing 5 mM Probenecid and stored in the dark. Each well was loaded with 25 μL of 0.3× Fluo-4 NW calcium dye and incubated at 37 C/5% CO2 for 60 minutes and then at room temperature for 30 minutes. A half-log serially diluted concentration response curve was prepared at a 4× concentration for each (10 μM-0.1 nM final assay concentration) and 25 μL of the compound then transferred to the cells (100 μL final volume) for 60 minutes prior to stimulation (30 minutes at 37° C./5% CO2 and 30 minutes at room temperature). TECK was diluted to 5× its EC50 in assay buffer (containing 0.1% [w/v] bovine serum albumin [BSA]) and 25 μL dispensed through the FLIPR instrument to stimulate the cells (125 μL final volume). The increased in intracellular calcium levels was measured with the FLIPR instrument. The potency of the compound as CCR9 antagonist was calculated as an IC50 using GraphPad Prism software (variable slope four parameter). The Ki of the compound was determined from the IC50 values using the following equation.
(§1) Ki calculation: IC50/1+(Agonist (TECK) conc. used in assay/EC50 of agonist (TECK) generated on day of experiment)

The target of test [2] is T1, CCR9. As to the kind of experiment: FLIPR calcium flux assay using hCCR9 over expressed cells (TECK stimulation). In kind it is cell-based. Also on record: expressed in transfected cells; host or cells: Chem-1 cells overexpressing hCCR9. As to conditions: Chem1-hCCR9 overexpressing cells; Ki determined from IC50 of TECK-induced intracellular calcium increase. As for the experimental part:
Biological Activity: FLIPR Assay Using hCCR9 Over Expressed Cells
A calcium flux assay was used to determine the ability of the compounds to interfere with the binding between CCR9 and its chemokine ligand (TECK) in Cheml-hCCR9 overexpressing cells. hCCR9 overexpressing cells were seeded (25,000 cells/well) into black Poly-D-Lysine coated clear bottom 96-well plates (BD Biosciences, Cat #356640) and incubated overnight at 37° C./5% CO2 in a humidified incubator. Media was aspirated and cells washed twice with 100 μL assay buffer (1×HBSS, 20 mM HEPES) containing 2.5 mM Probenecid. A 0.3× Fluo-4 NW calcium dye was prepared in assay buffer containing 5 mM Probenecid and stored in the dark. Each well was loaded with 100 μL of 0.3× Fluo-4 NW calcium dye and incubated at 37° C./5% CO2 for 60 minutes and then at room temperature for 30 minutes. A half-log serially diluted concentration response curve was prepared at a 3× final assay concentration for each compound (10 μM−0.1 nM final assay concentration) and 50 μL of the compound then transferred to the cells (150 μL final volume) for 60 minutes prior to stimulation (30 minutes at 37° C./5% CO2 and 30 minutes at room temperature). TECK was diluted to 4× its ECso in assay buffer (containing 0.1% [w/v] bovine serum albumin[BSA]) and 50 μL dispensed through the fluorometric imaging plate reader (FLIPR) instrument to stimulate the cells (200 μL final volume). The increase in intracellular calcium levels was measured with the FLIPR instrument. The potency of the compound as a CCR9 antagonist was calculated as an IC50 using GraphPad Prism software (variable slope four parameter). The Ki of the compound was determined from the IC50 values using the following equation.
as §1
In general terms: Calcium flux is commonly read through the fluorescence of an indicator in the cells.

Turning to `CC(C)(C)c1ccc(S(=O)(=O)Nc2ccc(Cl)c3cc(C4CC4)nn23)cc1` [Compound 105], the pKi is 6.55 on CCR9 [1] and 7.25 on CCR9 [2].
In the same order, the values of `CC(C)(C)c1ccc(S(=O)(=O)Nc2ccc(Cl)c3cc(-c4ccsc4C(=O)O)nn23)cc1` [Compound 172, 3-(7-((4-(tert-butyl)phenyl)sulfonamido)-4-chloropyrazolo[1,5-a]pyridin-2-yl)thiophene-2-carboxylic acid] are 7.10 and 6.89.
Regarding `Cn1ccc(-c2cc3c(Cl)ccc(NS(=O)(=O)c4ccc(C(C)(C)C)cc4)n3n2)n1` [Compound 183], the pKi at CCR9 [1] is 7.02; at CCR9 [2], 7.03.
The matching figures for `CC(C)(C)c1ccc(S(=O)(=O)Nc2ccnc3cc(C4CC4)nn23)cc1` [Compound 37, 4-(tert-butyl)-N-(2-cyclopropylpyrazolo[1,5-a]pyrimidin-7-yl)benzenesulfonamide]: 6.15 and 5.71.
In the same order, the values of `CC(C)(C)c1ccc(S(=O)(=O)Nc2ccc(Cl)c3cc(-c4cnco4)nn23)cc1` [Compound 169, 4-(tert-butyl)-N-(4-chloro-2-(oxazol-5-yl)pyrazolo[1,5-a]pyridin-7-yl)benzenesulfonamide] are 6.79 and 6.46.
The matching figures for `Cc1cc2c(Cl)ccc(NS(=O)(=O)c3ccc(C(C)(C)C#N)cc3)n2n1` [Compound 98]: 6.96 and 6.29.
Consider `COc1ncccc1-c1cc2c(C#N)ccc(NS(=O)(=O)c3ccc(C(C)(C)C)cc3)n2n1` [Compound 202], for which the pKi on CCR9 [1] is 6.97; on CCR9 [2], 6.90.
The matching figures for `Cc1ncccc1-c1cc2c(C#N)ccc(NS(=O)(=O)c3ccc(C(C)(C)C)cc3)n2n1` [Compound 204]: 7.43 and 6.92.
The matching figures for `CC(C)n1cc(-c2cc3c(Cl)ccc(NS(=O)(=O)c4ccc(C(C)(C)C)cc4)n3n2)cn1` [Compound 186]: 7.51 and 7.17.
In the same order, the values of `Cc1cc2nccc(NS(=O)(=O)c3ccc(-c4cnco4)cc3)n2n1` [Compound 1, N-(2-methylpyrazolo[1,5-a]pyrimidin-7-yl)-4-(oxazol-5-yl)benzenesulfonamide] are 7.72 and 6.34.
For the compound `Cc1cc(-c2cc3c(C#N)ccc(NS(=O)(=O)c4ccc(C(C)(C)C)cc4)n3n2)n(C)n1` [Compound 158], the pKi at CCR9 [1] was 7.32; on CCR9 [2], 6.73.
The matching figures for `CC(C)(C)c1ccc(S(=O)(=O)Nc2ccc(Cl)c3cc(-c4cccnc4)nn23)cc1` [Compound 110, 4-(tert-butyl)-N-(4-chloro-2-(pyridin-3-yl)pyrazolo[1,5-a]pyridin-7-yl)benzenesulfonamide]: 6.94 and 6.40.
Take `CC(C)(C)c1ccc(S(=O)(=O)Nc2c(C#N)ccc3cc(-c4cccnc4)nn23)cc1` [Compound 180, 4-(tert-butyl)-N-(6-cyano-2-(pyridin-3-yl)pyrazolo[1,5-a]pyridin-7-yl)benzenesulfonamide]: the negative-log Ki (pKi) at CCR9 [1] was 7.52; at CCR9 [2], 6.88.
The matching figures for `Cc1cncc(-c2cc3c(C#N)ccc(NS(=O)(=O)c4ccc(C(C)(C)C)cc4)n3n2)c1` [Compound 200]: 7.70 and 7.92.
For `CC(C)(C)c1ccc(S(=O)(=O)Nc2ccc(C#N)c3cc(-c4cccnc4)nn23)cc1` [Compound 149, 4-(tert-butyl)-N-(4-cyano-2-(pyridin-3-yl)pyrazolo[1,5-a]pyridin-7-yl)benzenesulfonamide], the pKi on CCR9 [1] was 7.06; on CCR9 [2] it was 6.80.
The matching figures for `Cc1c(-c2cc3c(C#N)ccc(NS(=O)(=O)c4ccc(C(C)(C)C)cc4)n3n2)cnn1C` [Compound 190]: 7.27 and 6.94.
Take `Cc1ccc(-c2cc3c(C#N)ccc(NS(=O)(=O)c4ccc(C(C)(C)C)cc4)n3n2)cn1` [Compound 206]: the pKi at CCR9 [1] was 7.19; on CCR9 [2], 6.89.
In the same order, the values of `CC(C)(C)c1ccc(S(=O)(=O)Nc2ccc(Cl)c3cc(-c4ccc[n+]([O-])c4)nn23)cc1` [Compound 111, 3-(7-((4-(tert-butyl)phenyl)sulfonamido)-4-chloropyrazolo[1,5-a]pyridin-2-yl)pyridine 1-oxide] are 7.25 and 6.72.
The matching figures for `Cc1cc2c(C#N)ccc(NS(=O)(=O)c3ccc(C(C)(C)C)cc3)n2n1` [Compound 95, 4-(tert-butyl)-N-(4-cyano-2-methylpyrazolo[1,5-a]pyridin-7-yl)benzene sulfonamide]: 8.70 and 6.96.
The matching figures for `Cc1cncc(-c2cc3c(Cl)ccc(NS(=O)(=O)c4ccc(C(C)(C)C)cc4)n3n2)c1` [Compound 199]: 6.98 and 7.20.
On to `Cn1ccc(-c2cc3c(C#N)ccc(NS(=O)(=O)c4ccc(C(C)(C)C)cc4)n3n2)n1` [Compound 184], for which the pKi is 7.66 on CCR9 [1] and 7.77 at CCR9 [2].
As to `Cn1cnc(-c2cc3c(Cl)ccc(NS(=O)(=O)c4ccc(C(C)(C)C)cc4)n3n2)c1` [Compound 182], the pKi at CCR9 [1] is 7.10; on CCR9 [2], 6.77.
Consider `CC(C)(C)c1ccc(S(=O)(=O)Nc2ccc(C#N)c3cc(-c4cn[nH]c4)nn23)cc1` [Compound 164, 4-(tert-butyl)-N-(4-cyano-2-(1H-pyrazol-4-yl)pyrazolo[1,5-a]pyridin-7-yl)benzenesulfonamide], for which the values for the pKi on CCR9 [1] and on CCR9 [2] were 7.47 and 6.95, respectively.
In the same order, the values of `Cn1nnc(-c2cc3c(Cl)ccc(NS(=O)(=O)c4ccc(C(C)(C)C)cc4)n3n2)n1` [Compound 192] are 6.79 and 6.74.
Turning to `Cc1cc2nccc(NS(=O)(=O)c3ccc(C(C)(C)C)cc3)n2n1` [Compound 3], the pKi at CCR9 [1] is 6.50; on CCR9 [2] it was 5.84.
Consider `Cn1nccc1-c1cc2c(C#N)ccc(NS(=O)(=O)c3ccc(C(C)(C)C)cc3)n2n1` [Compound 152], for which the pKi at CCR9 [1] is 7.39; at CCR9 [2], 6.90.
The matching figures for `CCc1cc2nccc(NS(=O)(=O)c3ccc(C(C)(C)C)cc3)n2n1` [Compound 85, 4-(tert-butyl)-N-(2-ethylpyrazolo[1,5-a]pyrimidin-7-yl)benzenesulfonamide]: 6.95 and 5.74.
The matching figures for `Cn1ccc(-c2cc3c(C#N)ccc(NS(=O)(=O)c4ccc(C(C)(C)C)cc4)n3n2)c1` [Compound 159]: 7.02 and 6.87.
The matching figures for `O=S(=O)(Nc1ccc(Cl)c2cc(-c3cccnc3)nn12)c1ccc(C(F)(F)F)cc1` [Compound 113]: 6.73 and 6.12.
Regarding `CC(C)c1cc2nccc(NS(=O)(=O)c3ccc(C(C)(C)C)cc3)n2n1` [Compound 79, 4-(tert-butyl)-N-(2-isopropylpyrazolo[1,5-a]pyrimidin-7-yl)benzenesulfonamide], the pKi at CCR9 [1] was 6.53; at CCR9 [2], 5.82.

By pKi is commonly meant the negative decadic logarithm of the Ki, by convention in mol/L.

Values taken from patent publication US20170002011A1, “BENZENE SULFONAMIDES AS CCR9 INHIBITORS” (NORGINE B.V., priority 2013, published 2017).
